In ChEMBL document CHEMBL5728837, “Non-fused tricyclic compounds” (2021) one finds IC50 data, which are given here for 74 compounds.

A short description of this experiment: YAP Reporter Assay: HEK293T cells stably transfected with 8XTBD luciferase reporter and pRLTK in 384-well plates were treated with the test compounds, starting from 3 μM (final concentration in assay plate), 1:3 dilution, and 10 points in quadruplicates. Post 24-hr incubation with compounds at 37° C. and 5% CO2, cells were lysed and 8XTBD-driven firefly luciferase and control TK-driven renilla luciferase activities were measured using Promega Dual-Luciferase Reporter Assay System.Reagents: The reagents used for this study are: DMEM: Invitrogen #11960077, Dual-Glo Luciferase Assay System: Promega-E2980, Puromycin Dihydrochloride: Invitrogen-A1113803, 384-well plate: PerkinElmer-6007480, L-GLUTAMINE: Invitrogen-25030164, Hygromycin B: Invitrogen-10687010, and Penicillin-Streptomycin: Merk-TMS-AB2-CMedia: The media used for this assay were: Culture Medium: DMEM+1 ug/mL puromycin+200 ug/mL hygromycin (with 10% FBS+1 mM L-glutamine); and Assay Medium: DMEM (with 10% FBS+1 mM L-glutamine+1× P/S).Cell Plating: The appropriate media was warmed at 37° C. by water bath: Culture Medium, Assay Medium, 1*D-PBS, 0.05% trypsin-EDTA. The cells were trypsinized after removing all media, then washed with 1*sterile D-PBS and then with 2 ml 0.05% trypsin-EDTA. The cells were then incubated at RT for one minute. Then 10 ml/75 cm2 flask Assay Medium was added to each flask. Using a 10 ml pipette, the cells were then gently resuspended in the media, until the clumps completely disappeared. The cells were then transferred into 50 ml centrifuge tubes and were centrifuged at 800 rpm for 5 mins. The medium was removed and the cells were resuspended with Assay Medium. An aliquot of cells was used to count the cell density (cells/nil). The cell suspension was then diluted with Assay Medium to a concentration of 6×10^4 cells/ml. 50 ul cells suspension was then plated to 384-well plate (PerkinElmer-6007480), 3×10^3 cells/well and the cells were incubated in an incubator at 37° C., 5% CO2.Compound Treatment: In the afternoon (incubation of the plate with 3-4 hrs), the test compounds were added by Echo, starting from 3 uM (final concentration in the assay plate), 1:3 dilution, 10 points, quadruplicates. The plate was placed at 37° C., 5% CO2 incubator for 24 hrs.Detection: The Dual-Glo Luciferase Reagent was prepared by transferring the contents of one bottle of Dual-Glo Luciferase Buffer to one bottle of Dual-Glo Luciferase Substrate to create the Dual-Glo Luciferase Reagent. Mixing was performed by inversion until the substrate was thoroughly dissolved. After mixing, the reagent was aliquoted into 15 ml tubes. In the afternoon (24 hrs post compound treatment), the DMEM+ medium in the 384 well plates were aspirated by Microplate Washer.Measuring firefly luciferase activity: 20 ul Dual-Glo Luciferase Reagent was added to the 384-well plates. The plates were protected from light to prevent interference with the assay. The plates were shaken for 1 min followed centrifuging plates at 1000 rpm for 30 seconds. After waiting at least 10 minutes, the firefly luminescence was measured by Envision.Measuring renilla luciferase activity: 20 ul Stop-Glo Reagent was added to the 384-well plates. The plates were shaken for lmin and then centrifuged at 1000 rpm for 30 seconds. After waiting at least 10 minutes, the renilla luminescence was measured by Envision.

Bounds are passed on as bounds.

Turning to `OCCCn1nnc(-c2ccccc2Nc2ccc(C(F)(F)F)cc2)n1`, the half-maximal inhibitory concentration (IC50) (HEK-293T, 24 h) is below 100 nM. Turning to `FC(F)(F)c1ccc(Nc2ccccc2-c2nnn(Cc3cccnc3)n2)cc1`, where the note is “HEK-293T, 24 h”, the IC50 result is “in the range around 550 nM”. On the same count and under the same terms, the figure for `OC1(Cn2nnc(-c3ccccc3Nc3ccc(C(F)(F)F)cc3)n2)CCOC1` (stereo not given) is below 100 nM. Same read-out and setting: the figure for `CCc1ccc(Nc2ccc(C(F)(F)F)cc2)c(-c2nnn(CCO)n2)c1` is below 100 nM.

Regarding `CCc1ccc(Nc2ccccc2-c2nnn(CCO)n2)cc1`, the concentration for half-maximal inhibition (IC50) result (HEK-293T, 24 h) was “in the range around 550 nM”. Still for that read-out and setting: for `FC(F)(F)c1ccc(Nc2ccccc2-c2nnn(CCOC3CCNCC3)n2)cc1` the value was “in the range around 550 nM”; for `CNCCn1nnc(-c2ccccc2Nc2ccc(C(F)(F)F)cc2)n1`, “in the range around 550 nM”. Still for that read-out and setting: for `CS(=O)(=O)NCCn1nnc(-c2ccccc2Nc2ccc(C(F)(F)F)cc2)n1` the value was “in the range around 3000 nM”. The same measure, in the same setting: for `OC(Cn1nnc(-c2ccccc2Nc2ccc(C(F)(F)F)cc2)n1)C(F)(F)F` (stereo not given) the value was below 100 nM; for `COCC(C)n1nnc(-c2ccccc2Nc2ccc(C(F)(F)F)cc2)n1` (stereo not given), below 100 nM. Consider `OC1(Cn2nnc(-c3ccccc3Nc3ccc(C(F)(F)F)cc3)n2)CCCC1`, for which, where the note is “HEK-293T, 24 h”, the 50% inhibitory concentration (IC50) is below 100 nM. The same measure, in the same setting: for `Cc1ccc(-c2nnn(CCO)n2)c(Nc2ccc(C(F)(F)F)cc2)c1` the value was below 100 nM; for `O=C1NC(Cn2nnc(-c3ccccc3Nc3ccc(C(F)(F)F)cc3)n2)CO1` (stereo not given), “in the range around 550 nM”; for `CC(CO)c1nc(-c2ccccc2Nc2ccc(C(F)(F)F)cc2)nn1C` (stereo not given), “in the range around 3000 nM”. In the case of `OC(Cn1nnc(-c2ccccc2Nc2ccc(C(F)(F)F)cc2)n1)C1CC1` (stereo not given), for the setting “HEK-293T, 24 h”, the half-maximal inhibitory concentration (IC50) is below 100 nM.

Consider `OC(Cn1nnc(-c2ccccc2Nc2ccc(C(F)(F)F)cc2)n1)c1ccccc1` (stereo not given), for which the half-maximal inhibitory concentration (IC50) result (HEK-293T, 24 h) was “in the range around 3000 nM”.

In the case of `OCCn1nnc(-c2cc(C(F)F)ccc2Nc2ccc(C(F)(F)F)cc2)n1`, under “HEK-293T, 24 h”, the IC50 entry was “in the range around 550 nM”.

As for `CCOC(=O)Cn1cnc(-c2ccccc2Nc2ccc(C(F)(F)F)cc2)c1`, the half-inhibitory concentration (IC50) entry (HEK-293T, 24 h) was “in the range around 550 nM”. Still for that read-out and setting: for `FC(F)(F)OCCn1nnc(-c2ccccc2Nc2ccc(C(F)(F)F)cc2)n1` the value was “in the range around 550 nM”; for `NS(=O)(=O)NCCn1nnc(-c2ccccc2Nc2ccc(C(F)(F)F)cc2)n1`, “in the range around 3000 nM”; for `FC(F)(F)c1ccc(Nc2ccccc2-c2nnn(C3COC3)n2)cc1`, below 100 nM.

With `OCCn1nnc(-c2ccccc2Nc2ccc(F)cc2F)n1`, the IC50 result (HEK-293T, 24 h) was “in the range around 550 nM”.

Consider `CCOC(=O)Cn1cc(-c2ccccc2Nc2cccc(C(F)(F)F)c2)cn1`, for which the IC50 entry (HEK-293T, 24 h) was “in the range around 550 nM”.

Turning to `CC(=O)N1CCC(O)(Cn2nnc(-c3ccccc3Nc3ccc(C(F)(F)F)cc3)n2)C1` (stereo not given), where the note is “HEK-293T, 24 h”, the concentration for half-maximal inhibition (IC50) entry was “in the range around 550 nM”. Same read-out and setting: for `CN(C)CCCn1nnc(-c2ccccc2Nc2ccc(C(F)(F)F)cc2)n1` the value was “in the range around 3000 nM”. As to `OCCn1nnc(-c2ccccc2Nc2ccc(C(F)(F)F)cc2)n1`, the IC50 was below 100 nM. Further, the IC50 (HEK-293T, 24 h) was below 100 nM. Consider `OCCn1nnc(-c2c(F)cccc2Nc2ccc(C(F)(F)F)cc2)n1`, for which the IC50 (HEK-293T, 24 h) is below 100 nM. On the same count and under the same terms, the entry for `OCCn1nnc(-c2cccnc2Nc2ccc(OC(F)(F)F)cc2)n1` is “in the range around 550 nM”. Still for that read-out and setting: the figure for `OC1(Cn2nnc(-c3ccccc3Nc3ccc(C(F)(F)F)cc3)n2)CCC1` is below 100 nM; for `CC(=O)OC1(CN2N=C(c3ccccc3Nc3ccc(C(F)(F)F)cc3)NN2)CN(C(C)=O)C1` it is “in the range around 3000 nM”.

On to `OCCn1nnc(-c2cc(C(F)(F)F)ccc2Nc2ccc(C(F)(F)F)cc2)n1`, for which the IC50 entry (HEK-293T, 24 h) is “in the range around 550 nM”. Still for that read-out and setting: the entry for `OC1(Cn2nnc(-c3ccccc3Nc3ccc(C(F)(F)F)cc3)n2)CCCNC1` (stereo not given) is “in the range around 550 nM”; for `CO[C@@H](C)[C@H](C)n1nnc(-c2ccccc2Nc2ccc(C(F)(F)F)cc2)n1` it is below 100 nM; for `OC1(Cn2nnc(-c3ccccc3Nc3ccc(C(F)(F)F)cc3)n2)CSC1` it is below 100 nM. The same measure, in the same setting: the entry for `O[C@@H]1CNC[C@H]1n1nnc(-c2ccccc2Nc2ccc(C(F)(F)F)cc2)n1` is “in the range around 550 nM”; for `OCCn1nnc(-c2ccccc2Nc2ccc(SC(F)(F)F)cc2)n1` it is “in the range around 550 nM”; for `CN(C)CCn1nnc(-c2ccccc2Nc2ccc(C(F)(F)F)cc2)n1` it is “in the range around 550 nM”. On the same count and under the same terms, the entry for `FC(F)(F)c1ccc(Nc2ccccc2-c2nnn(C3CCOCC3)n2)cc1` is “in the range around 550 nM”; for `OC1(Cn2nnc(-c3ccccc3Nc3ccc(C(F)(F)F)cc3)n2)CNC1` it is “in the range around 550 nM”; for `OCCn1nnc(-c2ccccc2Nc2cccc(OC(F)(F)F)c2)n1` it is “in the range around 550 nM”. `OCCn1nnc(-c2cc(OC(F)F)ccc2Nc2ccc(C(F)(F)F)cc2)n1`: the concentration for half-maximal inhibition (IC50) (HEK-293T, 24 h) is below 100 nM. On to `O=C(Cn1nnc(-c2ccccc2Nc2ccc(C(F)(F)F)cc2)n1)c1ccccc1`, for which the IC50 entry (HEK-293T, 24 h) is “in the range around 3000 nM”. On the same count and under the same terms, the entry for `OC1(Cn2nnc(-c3ccccc3Nc3ccc(C(F)(F)F)cc3)n2)CCOCC1` is “in the range around 550 nM”; for `CN(C)C(=O)Cn1nnc(-c2ccccc2Nc2ccc(C(F)(F)F)cc2)n1` it is “in the range around 550 nM”; for `O[C@@H]1CCC[C@@H]1n1nnc(-c2ccccc2Nc2ccc(C(F)(F)F)cc2)n1` it is “in the range around 550 nM”. Still for that read-out and setting: for `Cc1nn(CCO)cc1-c1ccccc1Nc1ccc(C(F)(F)F)cc1` the value was “in the range around 3000 nM”; for `NCCCn1nnc(-c2ccccc2Nc2ccc(C(F)(F)F)cc2)n1`, “in the range around 550 nM”; for `C[C@H]([C@@H](C)O)n1nnc(-c2ccccc2Nc2ccc(C(F)(F)F)cc2)n1`, below 100 nM.

`OCCn1nnc(-c2ccccc2Nc2ccc(SC(F)F)cc2)n1`: the IC50 entry (HEK-293T, 24 h) is “in the range around 550 nM”.

On to `CC(CO)n1nnc(-c2ccccc2Nc2ccc(C(F)(F)F)cc2)n1` (stereo not given), for which, where the note is “HEK-293T, 24 h”, the IC50 is below 100 nM. For `O=C(Cn1nnc(-c2ccccc2Nc2ccc(C(F)(F)F)cc2)n1)N1CCCC1`, for the setting “HEK-293T, 24 h”, the IC50 entry was “in the range around 550 nM”.

On to `OCCn1nnc(-c2cc(Br)ccc2Nc2ccc(C(F)(F)F)cc2)n1`, for which, where the note is “HEK-293T, 24 h”, the IC50 was below 100 nM. The same measure, in the same setting: for `FC(F)OCCn1nnc(-c2ccccc2Nc2ccc(C(F)(F)F)cc2)n1` the value was “in the range around 550 nM”; for `NCCn1cnc(-c2ccccc2Nc2ccc(C(F)(F)F)cc2)n1`, “in the range around 550 nM”.

As to `CCC(O)Cn1nnc(-c2ccccc2Nc2ccc(C(F)(F)F)cc2)n1` (stereo not given), the IC50 (HEK-293T, 24 h) was below 100 nM.

On to `CS(=O)(=O)NCCCn1nnc(-c2ccccc2Nc2ccc(C(F)(F)F)cc2)n1`, for which the IC50 result (HEK-293T, 24 h) was “in the range around 3000 nM”.

For the compound `O[C@H]1CNC[C@@H]1n1nnc(-c2ccccc2Nc2ccc(C(F)(F)F)cc2)n1`, where the note is “HEK-293T, 24 h”, the IC50 entry is “in the range around 550 nM”. Same read-out and setting: for `O=C1NCC(Cn2nnc(-c3ccccc3Nc3ccc(C(F)(F)F)cc3)n2)N1` (stereo not given) the value was “in the range around 550 nM”. Take `CC(N)Cn1nnc(-c2ccccc2Nc2ccc(C(F)(F)F)cc2)n1` (stereo not given): the IC50 result (HEK-293T, 24 h) is “in the range around 550 nM”. The same measure, in the same setting: for `CCOC(=O)Cn1ncc(-c2ccccc2Nc2ccc(C(F)(F)F)cc2)c1C` the value was below 100 nM; for `FC(F)(F)c1ccc(Nc2ccccc2-c2nnn(C3COCOC3)n2)cc1`, below 100 nM; for `OCCn1nnc(-c2ccccc2Nc2ccc(C(F)(F)F)c(Cl)c2)n1`, below 100 nM. With `CCOC(=O)Cn1cc(-c2ccccc2Nc2ccc(C(F)(F)F)cc2)cn1`, for the setting “HEK-293T, 24 h”, the half-inhibitory concentration (IC50) was below 100 nM. The same measure, in the same setting: the figure for `OCCn1nnc(-c2ccccc2Nc2ccc(OC(F)(F)F)cc2)n1` is below 100 nM.

Take `FC(F)(F)Oc1ccc(Nc2ccccc2-c2nnn(Cc3ccccn3)n2)cc1`: the half-maximal inhibitory concentration (IC50) entry (HEK-293T, 24 h) is “in the range around 3000 nM”.

As to `OCCn1nnc(-c2ccccc2Nc2ccccc2F)n1`, under “HEK-293T, 24 h”, the IC50 entry was “in the range around 3000 nM”. As to `NCC(CO)n1nnc(-c2ccccc2Nc2ccc(C(F)(F)F)cc2)n1` (stereo not given), the IC50 result (HEK-293T, 24 h) is “in the range around 550 nM”. As for `OC1(Cn2nnc(-c3ccccc3Nc3ccc(C(F)(F)F)cc3)n2)CCNCC1`, the IC50 result (HEK-293T, 24 h) was “in the range around 3000 nM”. Same read-out and setting: the figure for `OCCn1nnc(-c2cc(Cl)ccc2Nc2ccc(C(F)(F)F)cc2)n1` is below 100 nM; for `FCCCn1nnc(-c2ccccc2Nc2ccc(C(F)(F)F)cc2)n1` it is “in the range around 550 nM”. Regarding `C[C@H](O)[C@H](C)n1nnc(-c2ccccc2Nc2ccc(C(F)(F)F)cc2)n1`, the IC50 (HEK-293T, 24 h) was below 100 nM. Still for that read-out and setting: the entry for `OC1(Cn2nnc(-c3ccccc3Nc3ccc(C(F)(F)F)cc3)n2)CCCCC1` is “in the range around 550 nM”. Still for that read-out and setting: the entry for `CC(=O)NCCn1nnc(-c2ccccc2Nc2ccc(C(F)(F)F)cc2)n1` is “in the range around 550 nM”; for `Cc1ccc(Nc2ccc(C(F)(F)F)cc2)c(-c2nnn(CCO)n2)c1` it is below 100 nM.

In general, IC50 refers to the concentration that gives 50% inhibition.
